Assay results as given in patent publication US20240350471A1, “PHARMACEUTICAL COMPOSITION FOR PREVENTING OR TREATING ATTENTION DEFICIT/HYPERACTIVITY DISORDER” (DANKOOK UNIVERSITY CHEONAN CAMPUS INDUSTRY ACADEMIC …, priority 2021, published 2024).

Tested on: Git1 hetero type (+/−) mice
Test: Open field test in Git1 hetero type (+/−) ADHD model mice treated with SNAP5114
Assay type: in vivo
Details: SNAP5114 I.P. 50 ug/kg for 7 days prior to the experiment, movement measured for 10 minutes
Experimental: Git1 gene-deficient hetero (+/−) mice were prepared as an animal model with attention deficit/hyperactivity disorder (ADHD). Wild-type mice and GIT1 gene-deficient knock-out type (KO type) mice were crossed to obtain GIT1 gene-deficient hetero type. After making mating cages for among the obtained hetero type mice, genotyping was performed to isolate the hetero type mice. SNAP5114 was administered intraperitoneally (I.P.) at a concentration of 50 ug/kg for 7 days prior to the experiment. SNAP5114 was dissolved in 10% DMSO and then used by dissolving in 90% saline just before the experiment. Open field tests were performed to evaluate behavioral morphology and, in order to determine the characteristics of tonic GABA in the striatum, a representative brain region that controls hyperactivity, immunohistochemistry and electrophysiological measurements (patch clamp recording) were performed. Considering that changes in the amount of GABA associated with astrocytes in ADHD model mice are related to the transport protein that transports GABA into the astrocytes, behavioral experiments were conducted by treating the SNAP5114, an inhibitor of GABA transporter-3 (GAT-3). […] The mice were placed in the center of an open field test cage (30×30×30 cm), and its movement was measured for 10 minutes. The measured videos were analyzed for locomotor activity through ANYmaze.

SMILES: COc1ccc(C(OCCN2CCC[C@H](C(=O)O)C2)(c2ccc(OC)cc2)c2ccc(OC)cc2)cc1 [SNAP5114, (S)-1-(2-(tris(4-methoxyphenyl)methoxy)ethyl)piperidine-3-carboxylic acid]
- hyperactivity (distance of movement, locomotor activity) in open field test: hyperactivity was found to be ameliorated to the level of WT
